Measured values reported in patent US8846643B2, “Phosphonates with reduced toxicity for treatment of viral infections” (The Regents of the University of California, priority 2010, dated 2014).

Legend:
[1] = system: HCMV; conditions: data from Beadle et al.; cited from earlier work
[2] = system: HIV-1NL43; test: HIV-1 replication in human peripheral blood mononuclear cells; format: cell-based; conditions: HIV-1 infected human PBMCs
[3] = system: HCV genotype 2a replicon (JFH-1); test: anti-HCV activity in genotype 2a replicon (JFH-1); format: cell-based, hepatitis C virus; conditions: Hepatitis C virus, read-out: EC50 (μM) JFH-1 (2a)
[4] = system: MT-2 cells; test: cytotoxicity in MT-2 cells; conditions: MT-2 cells
[5] = cytotoxicity in MT-2 cells; conditions: human
[6] = in vitro; conditions: human, HFF fibroblasts
[7] = system: HCV genotype 1b replicon (BM4-5); test: anti-HCV activity in genotype 1b replicon (BM4-5); format: cell-based, hepatitis C virus; conditions: Hepatitis C virus, BM4-5, read-out: EC50 (μM) BM4-5(1b)
[8] = cytotoxicity (CC50) in HCV replicon cells / Huh 7.5 liver cells; conditions: human
[9] = system: HIV-1; test: microbe, parasite or virus in culture; conditions: Human immunodeficiency virus 1, MT2
[10] = system: Cowpox; conditions: data from Beadle et al.; cited from earlier work
[11] = system: Vaccinia; conditions: reported previously; read-out: EC50 for vaccinia inhibition; cited from earlier work

SMILES: CCCCCCCCCCCCCCCCCCOCCOP(=O)(O)CO[C@H](CO)Cn1cnc2c(N)ncnc21 [Cmpd 1, octadecyloxyethyl 9-(S)-[3-hydroxy-2-(phosphonomethoxy)propyl]adenine, reference compound]
- EC50 [1]: 0.003 ± 0.001 µM
- activity against HIV-1 in human PBMCs (in words) [2]: highly active and selective
- EC50 [3]: 1.65 ± 0.33 µM
- CC50 [4]: 33 nM
- CC50 [5]: 30 ± 20 nM
- CC50 [6]: 580 ± 300 nM
- EC50 [7]: 1.55 ± 0.5 µM
- CC50 [8]: 35600 nM
- EC50 [9]: 0.1 nM
- EC50 [10]: 0.05 ± 0.04 µM
- EC50 [11]: 20 nM
